Holding throughout (format): cell-based
Assay [1] concerns Fusarium virguliforme (Fv). In words: In vitro pathogen growth inhibition assay, Fv. The procedure, abridged: (§1)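 Spores of Dm, Fv and Pc were diluted in 17% V8 liquid medium; Rs used 1.5 mm mycelial plugs in ¼ PDB. Compounds from 2.5 mg/ml DMSO stocks were combined with inoculum, growth was read by OD600 at 24 and 48 h with blank subtraction, and the reported value is the concentration giving ≥90% inhibition.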

The test system of the next assay is Botrtyis cinerea (Bc). In words: In vitro pathogen growth inhibition assay, Bc. Conditions: 48 h. The method, boiled down:
(§2)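 Value reported is the compound concentration reaching ≥90% growth inhibition, from OD readings at 24 and 48 h after blank subtraction, confirmed visually. Inoculum was spores diluted in 17% V8 medium, except Rs, using 1.5 mm mycelial plugs in ¼ PDB; actual compound concentration corrected via OD600.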

In another assay the test system is Septoria tritici (St). Description: In vitro pathogen growth inhibition assay, St. The following applies: Zymoseptoria tritici, 48 h. The procedure, abridged:
as §2

Assay [2] relates to Collectotrichum graminicola (Cg). In words: In vitro pathogen growth inhibition assay, Cg. The following applies: 48 h. The method, boiled down: as §2
The test system of a further assay is Diplodia maydis (Dm). In words: In vitro pathogen growth inhibition assay, Dm. The following applies: Stenocarpella maydis, 48 h. The method, boiled down: as §1
Assay [3] concerns Phytophthora capsici (Pc). In words: In vitro pathogen growth inhibition assay, Pc. Conditions: 48 h. The procedure, abridged:
as §1

Assay [4] concerns Fusarium moniliforme (Fm). In words: In vitro pathogen growth inhibition assay, Fm. The following applies: Fusarium verticillioides. The procedure, abridged: as §2
Another assay deals with Rhizoctonia solani (Rs). Description: In vitro pathogen growth inhibition assay, Rs (mycelial plugs). Conditions: Rhizoctonia solani, 48 h. The method, boiled down:
as §1

Setting [5] is: ≥90% growth inhibition, 48 hours, vs 2% DMSO control, read-out: Compound Concentration (ppm) sufficient for ≥90% inhibition of Fv.
[6] abbreviates: ≥90% growth inhibition, 48 hours, vs 2% DMSO control, read-out: Compound Concentration (ppm) sufficient for ≥90% inhibition of Bc.
The mark [7] stands for this setting: ≥90% growth inhibition, 48 hours, vs 2% DMSO control, read-out: Compound Concentration (ppm) sufficient for ≥90% inhibition of St.
[8] abbreviates: ≥90% growth inhibition, 48 hours, vs 2% DMSO control, read-out: Compound Concentration (ppm) sufficient for ≥90% inhibition of Cg.
Setting [9] is: ≥90% growth inhibition, 48 hours, vs 2% DMSO control, read-out: Compound Concentration (ppm) sufficient for ≥90% inhibition of Dm.
The mark [10] stands for this setting: ≥90% growth inhibition, 48 hours, vs 2% DMSO control, read-out: Compound Concentration (ppm) sufficient for ≥90% inhibition of Pc.
Setting [11] is: ≥90% growth inhibition, 48 hours, vs 2% DMSO control, read-out: Compound Concentration (ppm) sufficient for ≥90% inhibition of Fm.
The mark [12] stands for this setting: ≥90% growth inhibition, mycelial plugs, 48 hours, vs 2% DMSO control, read-out: Compound Concentration (ppm) sufficient for ≥90% inhibition of Rs.

Values after ≈ are worked out from the molar mass of the structure shown. Where two headings read alike, the source gives them in different places. Some results are limits rather than exact numbers.

For 9 compounds, IC90 results are on record in patent publication US10941157B2, “Pesticidal compositions and uses thereof” (Gilead Apollo, LLC, priority 2015, dated 2021).

In the case of `Cc1c(-n2nccn2)sc2c1c(=O)n(C(C)(C)C(=O)NC(C)C)c(=O)n2C[C@H](OC(C)C)c1cc(F)ccc1CCC#N` [Compound I-277], the IC90 in assay [1] (setting [5]) was 0.08 µg/mL (≈ 0.131 µM); in the assay with Botrtyis cinerea (Bc) (setting [6]), 0.4 µg/mL (≈ 0.656 µM); in the assay on Septoria tritici (St) (setting [7]), > 50 µg/mL; in assay [2] (setting [8]), 0.4 µg/mL (≈ 0.656 µM); with Diplodia maydis (Dm) (setting [9]) it was 2 µg/mL (≈ 3.28 µM); in assay [3] (setting [10]), > 50 µg/mL. In addition, the IC90 (in assay [4] (setting [11]); with Rhizoctonia solani (Rs) (setting [12])) was 0.08 µg/mL (≈ 0.131 µM) throughout.
Turning to `Cc1c(-n2nccn2)sc2c1c(=O)n(C(C)(C)C(=O)NC(C)C)c(=O)n2C[C@H](OCC(C)(C)O)c1cc(F)ccc1OCC#N` [Compound I-278], the IC90 is 2 µg/mL (≈ 3.12 µM) in assay [1] (setting [5]); 2 µg/mL (≈ 3.12 µM) in the assay on Botrtyis cinerea (Bc) (setting [6]); > 50 µg/mL with Septoria tritici (St) (setting [7]); 0.4 µg/mL (≈ 0.623 µM) in assay [2] (setting [8]); 2 µg/mL (≈ 3.12 µM) in the assay on Diplodia maydis (Dm) (setting [9]); 10 µg/mL (≈ 15.6 µM) in assay [3] (setting [10]). Besides, the IC90 (in assay [4] (setting [11]); with Rhizoctonia solani (Rs) (setting [12])) was 0.4 µg/mL (≈ 0.623 µM) in each case.
For the compound `CCc1ccc(F)cc1[C@H](Cn1c(=O)n(C(C)(C)C(=O)NC(C)C)c(=O)c2c(C)c(-n3nccn3)sc21)OCC(C)(C)C#N` [Compound I-279], the IC90 was 0.08 µg/mL (≈ 0.128 µM) in assay [1] (setting [5]); 0.08 µg/mL (≈ 0.128 µM) with Botrtyis cinerea (Bc) (setting [6]); > 50 µg/mL in the assay on Septoria tritici (St) (setting [7]); 0.08 µg/mL (≈ 0.128 µM) in assay [2] (setting [8]); 2 µg/mL (≈ 3.21 µM) with Diplodia maydis (Dm) (setting [9]); > 50 µg/mL in assay [3] (setting [10]). Further, the IC90 (in assay [4] (setting [11]); with Rhizoctonia solani (Rs) (setting [12])) was 0.08 µg/mL (≈ 0.128 µM) each time.
`CCc1ccc(F)cc1[C@H](Cn1c(=O)n(C(C)(C)C(=O)NC(C)C)c(=O)c2c(C)c(-n3nccn3)sc21)O[C@H]1C[C@@H](O)C1` [Compound I-280]: the IC90 in assay [1] (setting [5]) was 0.4 µg/mL (≈ 0.653 µM); with Botrtyis cinerea (Bc) (setting [6]), 2 µg/mL (≈ 3.26 µM); in the assay with Septoria tritici (St) (setting [7]) it was ≥ 50 µg/mL; in assay [2] (setting [8]) it was 2 µg/mL (≈ 3.26 µM); in the assay on Diplodia maydis (Dm) (setting [9]) it was 2 µg/mL (≈ 3.26 µM); in assay [3] (setting [10]), 50 µg/mL (≈ 81.6 µM). For the same compound, the IC90 (in assay [4] (setting [11]); in the assay with Rhizoctonia solani (Rs) (setting [12])) was 0.08 µg/mL (≈ 0.131 µM) each time.
For the compound `Cc1c(-n2nccn2)sc2c1c(=O)n(C(C)(C)C(=O)NC(C)C)c(=O)n2C[C@H](OCCC#N)c1cc(F)ccc1O` [Compound I-282], the IC90 is 2 µg/mL (≈ 3.43 µM) in assay [1] (setting [5]); 2 µg/mL (≈ 3.43 µM) in the assay with Botrtyis cinerea (Bc) (setting [6]); > 50 µg/mL in the assay with Septoria tritici (St) (setting [7]); 2 µg/mL (≈ 3.43 µM) in assay [2] (setting [8]); ≥ 10 µg/mL with Diplodia maydis (Dm) (setting [9]); 10 µg/mL (≈ 17.1 µM) in assay [3] (setting [10]). Moreover, the IC90 (in assay [4] (setting [11]); in the assay with Rhizoctonia solani (Rs) (setting [12])) was 0.4 µg/mL (≈ 0.685 µM) each time.
With `Cc1c(-n2cccn2)sc2c1c(=O)n(C(C)(C)C(=O)NC(C)C)c(=O)n2C[C@H](OCCC#N)c1cc(F)ccc1O` [Compound I-283], the IC90 in assay [1] (setting [5]) was 10 µg/mL (≈ 17.2 µM); in the assay on Botrtyis cinerea (Bc) (setting [6]) it was 10 µg/mL (≈ 17.2 µM); with Septoria tritici (St) (setting [7]) it was > 50 µg/mL; in assay [2] (setting [8]) it was 50 µg/mL (≈ 85.8 µM); in the assay on Diplodia maydis (Dm) (setting [9]), > 50 µg/mL; in assay [3] (setting [10]) it was > 50 µg/mL. Moreover, the IC90 (in assay [4] (setting [11]); in the assay on Rhizoctonia solani (Rs) (setting [12])) was 2 µg/mL (≈ 3.43 µM) in each case.
Take `COc1ccc(F)cc1[C@H](Cn1c(=O)n(C(C)(C)C(=O)NC(C)C)c(=O)c2c(C)c(-n3cccn3)sc21)OCCS(C)(=O)=O` [Compound I-286]: the IC90 in assay [1] (setting [5]) was 2 µg/mL (≈ 3.08 µM); with Botrtyis cinerea (Bc) (setting [6]), 2 µg/mL (≈ 3.08 µM); in the assay with Septoria tritici (St) (setting [7]) it was > 50 µg/mL; in assay [2] (setting [8]), 2 µg/mL (≈ 3.08 µM); with Diplodia maydis (Dm) (setting [9]), ≥ 50 µg/mL; in assay [3] (setting [10]), ≥ 50 µg/mL. Also, the IC90 (in assay [4] (setting [11]); in the assay with Rhizoctonia solani (Rs) (setting [12])) was 2 µg/mL (≈ 3.08 µM) in each case.
As to `CCNC(=O)[C@H](C)n1c(=O)c2c(C)c(-n3nccn3)sc2n(C[C@H](OCCC#N)c2cc(F)ccc2OC)c1=O` [Compound I-290], the IC90 in assay [1] (setting [5]) was 10 µg/mL (≈ 17.6 µM); in the assay with Botrtyis cinerea (Bc) (setting [6]), 2 µg/mL (≈ 3.51 µM); in the assay on Septoria tritici (St) (setting [7]), > 50 µg/mL; in assay [2] (setting [8]) it was 10 µg/mL (≈ 17.6 µM); with Diplodia maydis (Dm) (setting [9]), ≥ 10 µg/mL; in assay [3] (setting [10]) it was > 50 µg/mL. Also, the IC90 is 0.4 µg/mL (≈ 0.702 µM) in assay [4] (setting [11]) and 2 µg/mL (≈ 3.51 µM) in the assay on Rhizoctonia solani (Rs) (setting [12]).
Consider `CCNC(=O)C(C)(C)n1c(=O)c2c(C)c(-n3nccn3)sc2n(C[C@@H](O)c2cc(F)ccc2OC)c1=O` [Compound I-291], for which the IC90 in assay [1] (concentration sufficient to ≥90% inhibition of growth, 48 hours vs 2% DMSO control, read-out: Compound Concentration (ppm) for ≥90% inhibition, Fv) is 50 µg/mL (≈ 94.2 µM); with Botrtyis cinerea (Bc) (concentration sufficient to ≥90% inhibition of growth, 48 hours vs 2% DMSO control, read-out: Compound Concentration (ppm) for ≥90% inhibition, Bc), 50 µg/mL (≈ 94.2 µM); with Septoria tritici (St) (concentration sufficient to ≥90% inhibition of growth, 48 hours vs 2% DMSO control, read-out: Compound Concentration (ppm) for ≥90% inhibition, St), > 50 µg/mL; in assay [2] (concentration sufficient to ≥90% inhibition of growth, 48 hours vs 2% DMSO control, read-out: Compound Concentration (ppm) for ≥90% inhibition, Cg), > 50 µg/mL; in the assay with Diplodia maydis (Dm) (concentration sufficient to ≥90% inhibition of growth, 48 hours vs 2% DMSO control, read-out: Compound Concentration (ppm) for ≥90% inhibition, Dm) it was 50 µg/mL (≈ 94.2 µM); in assay [3] (concentration sufficient to ≥90% inhibition of growth, 48 hours vs 2% DMSO control, read-out: Compound Concentration (ppm) for ≥90% inhibition, Pc), > 50 µg/mL. Further, the IC90 in assay [4] (concentration sufficient to ≥90% inhibition of growth, 48 hours vs 2% DMSO control, read-out: Compound Concentration (ppm) for ≥90% inhibition, Fm) was determined as 10 µg/mL (≈ 18.8 µM); in the assay with Rhizoctonia solani (Rs) (concentration sufficient to ≥90% inhibition of growth, 48 hours vs 2% DMSO control, read-out: Compound Concentration (ppm) for ≥90% inhibition, Rs), 2 µg/mL (≈ 3.77 µM).
